Reference: patent US20050075398A1, “Neuroprotectin D1 protects against cellular apoptosis, stroke damage, alzheimer's disease and retinal diseases” (priority 2003, published 2005)

Legend:
[1] = system: COX-2 expression; experiment: COX-2 mRNA abundance in ipsilateral hippocampus after MCA-O; type: in vivo, mouse; settings: 1 h MCA-O, 2 h reperfusion, infused into third ventricle (NPD1 0.16 μg/ml)
Method: (§1) COX-2 RNA abundance in hippocampus and HN cells. Abundance of human-specific COX-1 and COX-2 RNA message was assayed using RT-PCR as described in Bazan, N. G., and Lukiw, W. J. (2002) J. Biol. Chem. 277, 30359-30367.
To determine COX-1 and COX-2 expression, mRNA abundance in the ipsilateral hippocampus was measured. […] A 3-fold increase of COX-2 was seen due to MCA-O reperfusion (FIG. 7C). The infusion of the precursor DHA as well as its product 10,17S-docosatriene (NPD1) inhibited COX-2 expression by 14% and 52%, respectively.

[2] = system: COX-1 mRNA; experiment: COX-1 mRNA in human neural progenitor cells; type: cell-based
Method: Human neural (HN) progenitor cells in primary culture. HN cells were grown to ˜70% confluence (˜50,000 cells per 3.5-cm diameter well) in 6-well COSTAR plates at 37° C., 5% CO2/20% O2/75% N2 in humidified air at 1 atm (normoxic conditions) in NPMM medium (Clonetics CC-4241) supplemented with hFGF, NSF-1, hEGF, GA-1000, as described by the manufacturer (Clonetics, Walkersville, Md.). HN cells tested negative for HIV-1, hepatitis B and C, mycoplasma, bacteria, yeast, and fungi, and positive for the glial and neuronal markers GFAP, MAP2, and β-tubulin III (Clonetics). After two weeks of development, HN cells were exposed to human recombinant interleukin 1-beta (IL-1β) (10 ng/ml) for 3 h in the presence or absence of 0.03, 0.3, 3.0, 30, and 300 nM 10,17S-docosatriene (NPD1), DHA, or PBS pH 7.4 (control). RNA and protein were quickly isolated using Trizol Reagent (Invitrogen, Carlsbad, Calif.) and stored at −81° C. within minutes of isolation.
as §1

[3] = system: CEX-1 gene expression; experiment: HGU133 GeneChip DNA array in HN cells: CEX-1; type: cell-based, human; settings: Aβ42 25 μM, DHA 50 nM or NPD1 50 nM, 18 h, nsc = no significant change
[4] = system: Bcl-2 protein; experiment: Western analysis of Bcl-2 in HN cells; type: cell-based, human; settings: 50 nM, p<0.05
Method: Western Analysis. Total protein was extracted, and 25 μg of protein was analyzed by Western blots using human Bcl-2, Bfl-1 (A1) and actin antibodies. […] Human specific anti-Bfl-1(A1)[Cat. No. sc-8351] was obtained from Santa Cruz Biotechnology (Santa Cruz, Calif.). For Western analysis, signal-intensity data were gathered by phosphorimaging onto molecular imaging screens (FUJIFILM) for 3-36 h using a Typhoon Molecular Imager system (Amersham Biosciences) as described in Bazan and Lukiw, 2002.
To confirm the above changes in Bcl-2 and Bfl-1(A1), Western analysis was performed using anti-Bcl-2, anti-Bfl-1(A1), and anti-actin primary antibodies (B3170 Sigma Life Science, sc-8351 Santa Cruz, and A2103 Sigma, respectively). The results of the Western analysis confirm up-regulation of Bcl-2 and Bfl-1(A1) anti-apoptotic proteins over actin controls in DHA- and NPD1-treated cells.

[5] = system: ARPE-19 cells; experiment: DNA fragmentation by differential sedimentation after 3H-thymidine labeling; type: cell-based, human; settings: 50 nM; TNF-α 10 ng and H2O2 800 μM for 6-8 h
Method: DNA fragmentation assay: Cells (80% confluent) growing in DMEM (10% FBS) in 6-well plates were labeled with 1 μCi ^3H-thymidine per well for 24 h at 37° C. The day-old medium was replaced to remove the unincorporated ^3H-thymidine. Cells were then serum-starved for 1 h and treated with TNFα plus H2O2 for 6-8 h. Cells were harvested, centrifuged at 200×g for 10 min at 4° C. An aliquot of the supernatant was precipitated with 25% TCA, and radioactivity was measured. This represents the amount of ^3H-thymidine released during the oxidative stress induced by TNFα plus H2O2 The cell pellet was solubilized in lysis buffer (0.2% Triton X-100 in 10 mM Tris/EDTA). The intact DNA and fragmented DNA were separated by centrifugation at 13,000×g for 10 min at 4° C. Fragmented DNA was precipitated from the supernatant with 25% TCA. The pellets were resuspended in 1% SDS and radioactivity was measured. This represents the intact DNA in the cells. The amount of DNA fragmentation is expressed as percentage of fragmented DNA over the control, as described in Kim, H. Y., Akbar, M., Lau, A. & Edsall, L. (2000) J. Biol. Chem. 275:35215-35223.
These observations indicate that oxidative stress triggered DNA fragmentation and RPE apoptosis, and that the increase in NPD1 inhibited RPE cell death. […] DNA fragmentation was evaluated after TCA precipitation and expressed as percentage over intact DNA. […]

[6] = system: Bax; experiment: Western blot of Bax in ARPE-19 cells under TNFα/H2O2; type: cell-based, human; settings: 50 nM; 800 μM H2O2 along with TNFα, 6 h
Method: Analysis of pro- and anti-apoptotic proteins in ARPE-19 cells: Bcl-2 family proteins were analyzed by Western-blot analysis. In brief, 20-μg equivalents of each cell extract were subjected to electrophoresis on a 8-16% gel (Promega, Madison, Wis.) at 125 volts for 2 h. The proteins were transferred to nitrocellulose membrane at 30 volts for 1 h at 4° C. The membranes were subjected to treatment with primary antibodies of Bcl-2, Bcl-xL, Bax, and Bad for 1 h at room temperature, and probed 30 min with secondary antibody, goat anti-rabbit Ig:HRPO and HRP-conjugated anti-biotin antibody. (BD Sciences—Pharminogen, San Diego, Calif.) Then proteins were evaluated using an ECL kit. (Amersham Biosciences Corp., Piscataway, N.J.)
Using the same TNFα/H2O2 concentrations, Bcl-2 proteins were assayed. Cells were grown for 72 h after plating, placed in serum-free medium for 1 h, then incubated with TNFα/H2O2 for 6 h. Protein expression and Western-blot analysis were performed as described in Example 13. Data in FIGS. 14A, 14B, 14C and 14D represent four independent experiments with triplicate samples in each case. Anti-apoptotic protein Bcl-xL was enhanced in ARPE-19 cells by TNFα/H2O2 (800 μM) (FIG. 14B, first bar), whereas Bcl-2 was not changed (FIG. 14A, first bar).

CC/C=C\C[C@H](O)\C=C/C=C/C=C/[C@H](O)C/C=C\C/C=C\CCC(=O)O [NPD1, 10,17S-docosatriene]
inhibition of COX-2 expression (mRNA) [1]: 52%
effect on basal level of COX-1 mRNA [2]: seemed to decrease
CEX-1 gene expression, fold change over untreated controls [3]: nsc
Bcl-2 protein increase over controls, normalized with actin [4]: 2.3 fold
effect on DNA fragmentation (3H-thymidine) [5]: inhibited
decrease of the up regulation of Bax [6]: 65%
